{"source": "patent US20240408071A1", "about": "“NOVEL COMBINATION OF SEROTONIN RECEPTOR (5-HTR2B) ANTAGONIST AND AN IMMUNOMODULATOR AND CHEMOTHERAPEUTIC DRUGS FOR INHIBITION OF CANCER” (NATIONAL CENTRE FOR CELL SCIENCE, priority 2021, published 2024)", "key": {"MC38 cells [1]": {"test_system": "MC38 cells", "test": "MC38 tumor growth in immuno-compromised NRG mice", "assay_type": "in vivo", "conditions": "4 mg/kg/day from day 7; not as much as in wild-type mice (FIG. 8B)", "description": "FIG. 8 depicts that 5-HTR2B antagonism promotes antigen-specific immune response to the tumor: (A) Experimental protocol for SB-215505 treatment in MC38 tumor-bearing NRG mice. In brief, (B) MC38 cells were injected subcutaneously into NRG mice. After seven days of the tumor growth setting in mice, one group of mice was treated with 5-HTR2B antagonist SB-215505 (n=5 mice) or left untreated (n=5 mice). Tumour volumes were measured and plotted. (C) Experimental protocol for adoptive transfer of SB-215505 pre-treated naïve or MC38 tumor primed immune cells in MC38 tumor-bearing NRG mice. In brief: (D) MC38 cells were injected subcutaneously into NRG mice. Those mice were adoptively transferred with naïve (n=4 mice) or MC38 tumor primed immune cells (n=4 mice) or SB-215505 pre-treated naïve (n=4 mice) or SB-215505 pre-treated MC38 tumor primed immune cells (n=4 mice) from the day of tumor inoculation. After the tumor begins to appear, tumor volumes were measured and plotted. […]\nMC38 and MC38-cOVA cells were injected subcutaneously into the right flank of male C57BL/6 or NRG mice (0.5×10^6 cells/mouse in 150 μl PBS). […] Tumor volume was measured using a Vernier caliper on each alternate day or every third day as soon as the tumor appears. The volume of the tumor was measured using the formula V=L×W^2/2, where L=length of the tumor (mm) and W=width of the tumor (mm). […]"}, "MC38 colon cancer cells": {"test_system": "MC38 colon cancer cells", "test": "MC38 colon tumor growth (tumor volume) in C57BL/6 mice", "assay_type": "in vivo", "experimental": "Tumor volumes were measured and plotted. (B) MC38 colon cancer cells were injected subcutaneously into the right flank of C57BL/6 mice. After seven days when tumors became palpable, one group was treated with 5-HTR7 antagonist SB-269970 (n=6 mice; 3 mg/kg/day) or left untreated (n=6 mice). Tumor volume was measured and plotted. (C) After seven days of the setting of tumor growth, one group was treated with a serotonin transporter blocker (SSRI) sertraline hydrochloride (n=6 mice; 15 mg/kg/week) or left untreated (n=6 mice). Tumor volume was measured and plotted. (D) C57BL/6 mice were given subcutaneously injected MC38 cells. After seven days of tumor growth, one group of mice was treated with different doses of 5-HTR2B antagonist SB-215505 (n=6). Tumor volume was measured and plotted. (E) C57BL/6 mice were given subcutaneously injected MC38 cells. After seven days of the tumor growth, one group of mice was treated with different doses of 5-HTR2B antagonist SB-215505 (n=6), one group treated with 5-HTR2B agonist BW-723C86 (n=6; 4 mg/kg/day). Tumor volume was measured and plotted. (F) MC38 cells were subcutaneously injected into C57BL/6 mice. After seven days when the tumor became palpable in mice, one group of mice was treated with FDA-approved 5-HTR2B antagonist cariprazine (Carispec; Sun pharma) via oral gavage (n=5 mice; dose 5 mg/kg body weight/day) or left untreated (n=5 mice). Tumor growth was measured and plotted. […] All the statistical analysis was performed using Student's ‘t’ test or two-way ANOVA using Sidak's multiple comparison test. *P<0.05; **P<0.01; ***P<0.00; ****P<0.0001 Error bar represents mean±standard error of means (SEM)."}, "B16F10 cells": {"test_system": "B16F10 cells", "test": "B16F10 melanoma model, tumor volume", "assay_type": "in vivo, C57BL/6J mice", "conditions": "SB-215505 vs untreated, from day 7 (FIG. 7H)", "description": "(§1) FIG. 7 depicts that antagonizing the 5-HTR2B in mice inhibits breast and colon tumor growth: (A) MC38 colon cancer cells were injected subcutaneously into the right flank of C57BL/6 mice. […] Tumor volumes were measured and plotted. (B) MC38 colon cancer cells were injected subcutaneously into the right flank of C57BL/6 mice. After seven days when tumors became palpable, one group was treated with 5-HTR7 antagonist SB-269970 (n=6 mice; 3 mg/kg/day) or left untreated (n=6 mice). Tumor volume was measured and plotted. (C) After seven days of the setting of tumor growth, one group was treated with a serotonin transporter blocker (SSRI) sertraline hydrochloride (n=6 mice; 15 mg/kg/week) or left untreated (n=6 mice). Tumor volume was measured and plotted. (D) C57BL/6 mice were given subcutaneously injected MC38 cells. After seven days of tumor growth, one group of mice was treated with different doses of 5-HTR2B antagonist SB-215505 (n=6). Tumor volume was measured and plotted. (E) C57BL/6 mice were given subcutaneously injected MC38 cells. After seven days of the tumor growth, one group of mice was treated with different doses of 5-HTR2B antagonist SB-215505 (n=6), one group treated with 5-HTR2B agonist BW-723C86 (n=6; 4 mg/kg/day). Tumor volume was measured and plotted. […] Tumor growth was measured and plotted. […] Tumour volumes were measured and plotted. […] Tumour volumes were measured and plotted. […]"}, "4T1-Luc2 cells": {"test_system": "4T1-Luc2 cells", "test": "4T1-Luc2 breast cancer model, tumor volume", "assay_type": "in vivo, BALB/c mice", "conditions": "SB-215505 vs untreated, from day 7 (FIG. 7G)", "description": "as §1, with “(E) C57BL/6 mice were given subcutaneously injected MC38 cells. After seven days of the tumor growth, one group of mice was treated with different doses of 5-HTR2B antagonist SB-215505 (n=6), one group treated with 5-HTR2B agonist BW-723C86 (n=6; 4 mg/kg/day).” left out\nFIG. 16 depicts the effect of the 5-HTR2B antagonist on the FDA-approved chemotherapy drug treatment: (A) BALB/C mice were inoculated with 4T1-Luc2 cells in the mammary fat pad. […] Tumor volume was measured and plotted. […]"}, "PD-L1": {"test_system": "PD-L1", "test": "PD-L1 expression on MC38 cells in vitro (flow cytometry, mRNA)", "assay_type": "cell-based, mouse", "conditions": "BW-723C86 50 μM, serotonin 100 μM, RS-127445 50 μM, 72 hours (mRNA 48 hours) (FIG. 13A-E)", "description": "FIG. 13 depicts 5-HTR2B signaling promotes PD-L1 expression on the MC38 cell line in vitro: (A-B) MC38 cells are treated with 5-HTR2B agonist (BW-723C86-50 μM), serotonin (100 μM), and 5-HTR2B antagonist (RS-127445-50 μM) for 72 hours, and the PD-L1 expression was checked by flow cytometry and the percentage of PD-L1^+ MC38 cells was plotted. (C-D) MFI of PD-L1 from the above experiment were plotted as histogram overlay (C) or as statistical data points (D). (E) Relative PD-L1 mRNA expression in MC38 cells following BW-723C86 and RS-127445 treatment for 48 hours. Here the values are shown as a fold change as compared to control MC38 cells. (F) Serum PD-L1 level was measured by ELISA of naïve C57BL/6J mice, control MC38 tumor-bearing mice, BW-723C86 (5 mg/kg/day) treated MC38 tumor-bearing mice and RS-127445 (5 mg/kg/day) treated MC38 tumor-bearing mice after 14 days of tumor inoculation. All the statistical analysis was performed using either Student's ‘t’ test or two-way ANOVA using Sidak's multiple comparison test. *P<0.05; **P<0.01; […]; ****P<0.0001 Error bar represents mean±standard error of means (SEM).\nTo understand it, investigations were done on whether 5-HTR2B signaling also affects the surface expression of molecules that alters inflammatory and cytotoxic immune cells. Among different molecules, PD-L1 is of particular interest as it is an immune checkpoint ligand that affects cytotoxic T-cell responses toward cancer. […] (FIG. 13F)."}, "MC38 cells [2]": {"test_system": "MC38 cells", "test": "MTT cell viability assay", "assay_type": "cell-based, mouse", "conditions": "graded dose; reduced serum media; 48 hours of stimulation", "description": "FIG. 6 depicts that 5-HTR2B signalling in colon cancer affects cell proliferation and viability: Colon cancer MC38 cells were treated with serotonin (100 μM), 5-HTR2B agonist (BW-723C86; 50 μM), or 5-HTR2B antagonist (SB-215505; 50 μM) for 48 hours, and cell cycle analysis was performed by propidium iodide staining using flow cytometry. MC38 cells were also treated with a graded dose of 5-HTR2B agonist (BW-723C86) or serotonin. MTT assay was performed to measure cell viability. (A) After treatment with 5-HTR2B agonist BW-723C86, serotonin, or 5-HTR2B antagonist SB-215505, the relative cell cycle analysis is shown. (B) Relative cell viability data of MC38 cells following treatment of graded doses of 5-HTR2B agonist BW-723C86 or serotonin are shown. The data shown are representative of one of the three independent experiments. (C) MC38 tumor sections from the control tumor and 5-HTR2B antagonist treated tumor were stained for CD31 and the number of CD31^+ micro-blood vessels/mm^2 of tissue sections was counted and plotted to observe angiogenesis. Error bar represents ±standard error of the mean (SEM).\nMC38 cells were cultured at a density of 0.5×10^4 cells/well in 96 well plates (flat bottom) and were allowed to adhere for 24 hours. […] Then, MTT crystals were dissolved with DMSO, and the reading was taken at 590 nm in an ELISA reader (Thermofisher). […]"}, "[3]": {"conditions": "4 mg/kg/day from day 7 after inoculation, vs untreated (FIG. 7A)"}}, "data": [{"smiles": "Cc1cc2c(cc1Cl)N(C(=O)Nc1cccc3ncccc13)CC2", "note": "[SB-215505]", "values": [{"measurement": "MC38 tumor growth in NRG mice", "setting": "MC38 cells [1]", "value": "suppressed to some extent"}, {"measurement": "MC38 tumor growth", "setting": "MC38 colon cancer cells; [3]", "value": "efficiently control the tumor growth"}, {"measurement": "most efficient dose in reducing MC38 tumor growth", "setting": "MC38 colon cancer cells; dose-response, doses from 0.5 mg/kg/day to 4 mg/kg/day (FIG. 7D)", "value": 4, "unit": "mg/kg/day"}, {"measurement": "tumor burden, mice melanoma model", "setting": "B16F10 cells", "value": "reduced tumor burden"}, {"measurement": "tumor burden, mice breast cancer model", "setting": "4T1-Luc2 cells", "value": "reduced tumor burden"}]}, {"smiles": "NCCc1c[nH]c2ccc(O)cc12", "note": "[serotonin]", "values": [{"measurement": "expression of PD-L1 in the colon cancer cells", "setting": "PD-L1", "value": "did not significantly alter the PD-L1 expression"}, {"measurement": "viability of MC38 cells", "setting": "MC38 cells [2]", "value": "enhanced the viability of MC38 cells"}]}, {"smiles": "Cc1nc2sccn2c(=O)c1CCN1CCC(=C(c2ccc(F)cc2)c2ccc(F)cc2)CC1", "note": "[Ritanserin]", "values": [{"measurement": "MC38 tumor growth", "setting": "MC38 colon cancer cells; [3]", "value": "controls tumor growth to some extent"}, {"measurement": "MC38 tumor growth", "setting": "MC38 colon cancer cells; 4 mg/kg/day from day 7 after inoculation, vs untreated (FIG. 7A), listed as ritanserin", "value": "did not prevent tumor growth"}]}, {"smiles": "CN(C)C(=O)N[C@H]1CC[C@H](CCN2CCN(c3cccc(Cl)c3Cl)CC2)CC1", "note": "[cariprazine]", "values": [{"measurement": "MC38 tumor growth", "setting": "MC38 colon cancer cells; oral gavage, 5 mg/kg body weight/day (FIG. 7F)", "value": "significant reduction in MC38 tumor growth"}]}]}
